Test results from US9249125B2, “Pyrazole derivatives as p38 MAP inhibitors” (RESPIVERT LIMITED, priority 2012, dated 2016).

Legend:
p38 MAPKα = p38 MAPKα (Homo sapiens (Human), UniProt Q16539); assay: p38 MAPKα enzyme inhibition (FRET, Z-LYTE); format: biochemical
cSrc = cSrc (Homo sapiens (Human), UniProt P12931); assay: c-Src enzyme inhibition (FRET, Z-LYTE); format: biochemical
How it was run: (§1)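 Z-LYTE FRET kinase assay: enzyme (3000 or 2000 ng/mL stock, respectively) preincubated 2 h at RT with compound (4–0.004 μg/mL stocks), then FRET peptide plus ATP (800 μM stock for c-Src, 60 μM for Syk) added for 1 h. Protease development 1 h; phosphorylation from coumarin/fluorescein emission ratio.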

Syk = Syk (Homo sapiens (Human), UniProt P43405); assay: Syk enzyme inhibition (FRET, Z-LYTE); format: biochemical
How it was run: as §1

GSK3α = GSK3α (Homo sapiens (Human), UniProt P49840); assay: GSK 3α enzyme inhibition (FRET, Z-LYTE); format: biochemical
GSK3α, sequence (P49840 whole entry): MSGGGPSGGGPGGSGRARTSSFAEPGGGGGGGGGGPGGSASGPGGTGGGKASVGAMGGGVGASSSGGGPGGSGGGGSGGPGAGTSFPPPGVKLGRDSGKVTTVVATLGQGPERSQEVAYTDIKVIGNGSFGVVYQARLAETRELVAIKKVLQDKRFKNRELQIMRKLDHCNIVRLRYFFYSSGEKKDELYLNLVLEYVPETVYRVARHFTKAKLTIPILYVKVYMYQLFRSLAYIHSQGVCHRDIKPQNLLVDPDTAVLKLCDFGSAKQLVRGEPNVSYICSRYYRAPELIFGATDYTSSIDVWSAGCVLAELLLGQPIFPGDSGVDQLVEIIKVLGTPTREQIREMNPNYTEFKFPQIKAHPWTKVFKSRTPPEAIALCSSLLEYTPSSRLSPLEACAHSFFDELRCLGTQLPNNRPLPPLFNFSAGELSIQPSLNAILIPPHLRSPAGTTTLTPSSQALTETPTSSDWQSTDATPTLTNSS
How it was run: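 GSK3α (500 ng/mL stock) was preincubated 2 hr at RT with compound (4 to 0.004 μg/mL stocks), then FRET peptide (8 μM stock) and ATP (40 μM stock) added for 1 hr. Protease development for 1 hr cleaved unphosphorylated peptide; coumarin/fluorescein emission ratio reported phosphorylation.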

[1] = test system: LPS-induced TNFα release in d-U937 cells; assay: LPS-induced TNFα release in d-U937 cells; format: cell-based; conditions: Homo sapiens, dU937, relative to 10 μg/mL BIRB796, read-out: LPS Induced Release of Cytokine in d-937 Cells TNFα REC50
How it was run: (§2)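 PMA-differentiated (100 ng/mL, 48–72 hr) U937 cells pre-incubated with compound 2 hr, then stimulated with LPS (0.1 μg/mL, E. coli O111:B4) for 4 hr. Supernatant TNFα and IL-8 measured by sandwich ELISA; inhibition versus vehicle control, REC50 from concentration-response curve.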

[2] = test system: LPS-induced IL-8 release in d-U937 cells; assay: LPS-induced IL-8 release in d-U937 cells; format: cell-based; conditions: Homo sapiens, dU937, read-out: LPS Induced Release of Cytokine in d-937 Cells IL-8 IC50
How it was run: as §2

[3] = test system: Poly I:C-induced ICAM-1 expression in BEAS2B cells; assay: Poly I:C-induced ICAM-1 expression in BEAS2B cells; format: cell-based; conditions: Homo sapiens, BEAS-2B, read-out: Poly IC induced ICAM1 in BEAS2B IC50
How it was run: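 BEAS2B human bronchial epithelial cells pre-incubated with compound for 2 hr, then transfected with 1 μg/mL poly I:C plus Oligofectamine. At 18 hr, surface ICAM-1 measured by cell-based ELISA (HRP, OD450–655). Signal corrected for cell number by crystal violet OD595.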

d-U937 cells = assay: Cell viability: MTT assay; format: cell-based, human; conditions: 1 μg/mL
How it was run: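 Differentiated U937 cells were exposed to compound at 1 or 10 μg/mL either 4 h in 5% FCS RPMI1640 or 24 h in 10% FCS RPMI1640, then given MTT for 1 h, DMSO-solubilised and read at 550 nm. Percent viability loss versus 0.5% DMSO vehicle; apparent gains appear negative.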

PBMC cells = assay: Cell mitosis assay; format: cell-based, human
Protocol: Peripheral blood mononucleocytes (PBMCs) from healthy subjects are separated from whole blood (Quintiles, London, UK) using a density gradient (Histopaque-1077, Sigma-Aldrich, Poole, UK). The PBMCs (3 million cells per sample) are subsequently treated with 2% PHA (Sigma-Aldrich, Poole, UK) for 48 hr, followed by a 20 hr exposure to varying concentrations of test compounds. At 2 hr before collection, PBMCs are treated with demecolcine (0.1 μg/mL) (Invitrogen, Paisley, UK,) to arrest cells in metaphase. To observe mitotic cells, PBMCs are permeabilised and fixed by adding Intraprep (50 μL) (Beckman Coulter, France), and stained with anti-phospho-histone 3 (0.26 ng/L) (#9701; Cell Signalling, Danvers, Mass.) and propidium iodide (1 mg/mL) (Sigma-Aldrich, Poole, UK,) as previously described (Muehlbauer P. A. and Schuler M. J., Mutation Research, 2003, 537:117-130). Fluorescence is observed using an ATTUNE flow cytometer (Invitrogen, Paisley, UK), gating for lymphocytes.

HRV16 = HRV16 induced CPE in MRC5 cells; format: cell-based, human rhinovirus; conditions: for HRV induced CPE in MRC5 Cells % Inhibition Observed: screened at concentrations up to 0.32 ng/mL
Protocol: The supernatants are aspirated, and then fresh media added followed by incubation for 4 days. Where appropriate, cells are pre-incubated with compound or DMSO for 2 hr, and the compounds and DMSO added again after washout of the virus.
Supernatants are aspirated and incubated with methylene blue solution (100 μL, 2% formaldehyde, 10% methanol and 0.175% Methylene Blue) for 2 hr at RT. […] The percentage inhibition for each well is calculated. The IC50 value is calculated from the concentration-response curve generated by the serial dilutions of the test compounds.

p38 MAPKα, sequence (Q16539 whole entry): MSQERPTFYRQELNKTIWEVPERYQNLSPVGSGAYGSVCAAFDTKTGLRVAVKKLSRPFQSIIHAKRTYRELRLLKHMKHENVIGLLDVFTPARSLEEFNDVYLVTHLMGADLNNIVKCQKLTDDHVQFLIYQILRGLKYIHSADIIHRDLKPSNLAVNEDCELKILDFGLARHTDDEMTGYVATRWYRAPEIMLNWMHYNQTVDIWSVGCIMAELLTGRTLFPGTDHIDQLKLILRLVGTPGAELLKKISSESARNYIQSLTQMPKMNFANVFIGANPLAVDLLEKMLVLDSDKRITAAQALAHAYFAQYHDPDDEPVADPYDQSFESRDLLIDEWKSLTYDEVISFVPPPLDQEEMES
cSrc, sequence (P12931 whole entry, looked up): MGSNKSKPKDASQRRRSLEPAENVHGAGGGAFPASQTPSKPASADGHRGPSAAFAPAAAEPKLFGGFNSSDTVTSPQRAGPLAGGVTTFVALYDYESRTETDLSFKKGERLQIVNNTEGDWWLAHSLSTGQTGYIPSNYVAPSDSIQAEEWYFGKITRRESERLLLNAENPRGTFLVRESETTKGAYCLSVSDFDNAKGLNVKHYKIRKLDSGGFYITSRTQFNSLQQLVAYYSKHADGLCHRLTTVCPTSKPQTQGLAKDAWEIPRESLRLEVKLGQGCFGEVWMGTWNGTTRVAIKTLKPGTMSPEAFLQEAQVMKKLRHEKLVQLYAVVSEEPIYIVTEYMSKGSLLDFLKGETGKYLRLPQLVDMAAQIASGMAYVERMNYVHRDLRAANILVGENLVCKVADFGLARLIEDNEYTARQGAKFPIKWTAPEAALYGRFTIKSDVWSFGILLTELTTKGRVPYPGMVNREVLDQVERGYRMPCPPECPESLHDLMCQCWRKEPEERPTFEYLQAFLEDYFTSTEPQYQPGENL

Structure (SMILES) | IC50 (p38 MAPKα) | IC50 (cSrc) | IC50 (Syk) | IC50 (GSK3α) | EC50 [1] | IC50 [2] | Mitosis Assay % inhibition in PBMC cells at 5 μg/mL (PBMC cells) | IC50 [3] | MTT Assay Cell viability at time point in d-U937 cells 4 h (d-U937 cells) | MTT Assay Cell viability at time point in d-U937 cells 24 h (d-U937 cells) | HRV induced CPE in MRC5 Cells % Inhibition Observed (HRV16) | IC50 (HRV16; Human rhinovirus sp., HRV16, MRC5, read-out: HRV induced CPE in MRC5 Cells IC50)
COc1ccc(-n2nc(C(C)C)cc2NC(=O)Nc2ccc(Oc3ccnc(Nc4cc(C)c5[nH]ncc5c4)n3)c3ccccc23)cc1 [Example 9, 1-(3-Isopropyl-1-(4-methoxyphenyl)-1H-pyrazol-5-yl)-3-(4-((2-((7-methyl-1H-indazol-5-yl)amino)pyrimidin-4-yl)oxy)naphthalen-1-yl)urea] | 38 nM | 4 nM | 7 nM | > 15600 nM | 1.6 nM | 3.9 nM | 23.7% | 1.2 nM | −ve (−ve and +ve indicate that the value is below and above respectively, the no significant effect threshold, defined as 30% inhibition at 1 μg/mL at the time point indicated.) | −ve (−ve and +ve indicate that the value is below and above respectively, the no significant effect threshold, defined as 30% inhibition at 1 μg/mL at the time point indicated.) | – | –
Cc1ccc(-n2nc(C(C)(C)C)cc2NC(=O)Nc2ccc(Oc3ccnc(Nc4ccc5onc(N)c5c4)n3)c3ccccc23)cc1 [Example 5, 1-(4-((2-((3-Aminobenzo[d]isoxazol-5-yl)amino)pyrimidin-4-yl)oxy)naphthalen-1-yl)-3-(3-(tert-butyl)-1-(p-tolyl)-1H-pyrazol-5-yl)urea] | 81 nM | > 1560 nM | 49 nM | > 1560 nM | 1.1 nM | 1.7 nM | – | 0.6 nM | −ve (−ve and +ve indicate that the value is below and above respectively, the no significant effect threshold, defined as 30% inhibition at 1 μg/mL at the time point indicated.) | −ve (−ve and +ve indicate that the value is below and above respectively, the no significant effect threshold, defined as 30% inhibition at 1 μg/mL at the time point indicated.) | 100% | –
Cc1ccc(-n2nc(C(C)(C)C)cc2NC(=O)Nc2ccc(Oc3ccnc(Nc4ccc5c(c4)NC(=O)C5)n3)c3ccccc23)cc1 [Example 2, 1-(3-(tert-Butyl)-1-(p-tolyl)-1H-pyrazol-5-yl)-3-(4-((2-((2-oxoindolin-6-yl)amino)pyrimidin-4-yl)oxy)naphthalen-1-yl)urea] | 93 nM | 4 nM | 18 nM | > 15600 nM | 1.4 nM | 1.7 nM | – | 1.4 nM | −ve (−ve and +ve indicate that the value is below and above respectively, the no significant effect threshold, defined as 30% inhibition at 1 μg/mL at the time point indicated.) | −ve (−ve and +ve indicate that the value is below and above respectively, the no significant effect threshold, defined as 30% inhibition at 1 μg/mL at the time point indicated.) | 89% | –

Further lines, with some results ahead:

IC50 (p38 MAPKα) | IC50 (cSrc) | IC50 (Syk) | IC50 (GSK3α) | EC50 [1] | IC50 [2] | Mitosis Assay % inhibition in PBMC cells at 5 μg/mL (PBMC cells) | Structure (SMILES) | IC50 [3] | MTT Assay Cell viability at time point in d-U937 cells 4 h (d-U937 cells) | MTT Assay Cell viability at time point in d-U937 cells 24 h (d-U937 cells) | HRV induced CPE in MRC5 Cells % Inhibition Observed (HRV16) | IC50 (HRV16; Human rhinovirus sp., HRV16, MRC5, read-out: HRV induced CPE in MRC5 Cells IC50)
32 nM | 3 nM | 10 nM | 2430 nM | 18.8 nM | 153 nM | – | CC(C)(C)c1cc(NC(=O)Nc2ccc(Oc3ccnc(Nc4ccc5[nH]ncc5c4)n3)c3ccccc23)n(-c2ccc(=O)n(CCN3CCOCC3)c2)n1 [Example 88, 1-(4-((2-((1H-indazol-5-yl)amino)pyrimidin-4-yl)oxy)naphthalen-1-yl)-3-(3-(tert-butyl)-1-(1-(2-morpholinoethyl)-6-oxo-1,6-dihydropyridin-3-yl)-1H-pyrazol-5-yl)urea] | 35.9 nM | −ve (−ve and +ve indicate that the value is below and above respectively, the no significant effect threshold, defined as 30% inhibition at 1 μg/mL at the time point indicated.) | −ve (−ve and +ve indicate that the value is below and above respectively, the no significant effect threshold, defined as 30% inhibition at 1 μg/mL at the time point indicated.) | 75% | –
44 nM | < 1 nM | < 1 nM | 267 nM | 1.6 nM | 4.1 nM | 15.4% | CC(C)(C)c1cc(NC(=O)Nc2ccc(Oc3ccnc(Nc4ccc5c(c4)NC(=O)C5)n3)c3ccccc23)n(-c2ccc(OCCN3CCOCC3)nc2)n1 [Example 90, 1-(3-(tert-butyl)-1-(6-(2-morpholinoethoxy)pyridin-3-yl)-1H-pyrazol-5-yl)-3-(4-((2-((2-oxoindolin-6-yl)amino)pyrimidin-4-yl)oxy)naphthalen-1-yl)urea] | 14.6 nM | −ve (−ve and +ve indicate that the value is below and above respectively, the no significant effect threshold, defined as 30% inhibition at 1 μg/mL at the time point indicated.) | −ve (−ve and +ve indicate that the value is below and above respectively, the no significant effect threshold, defined as 30% inhibition at 1 μg/mL at the time point indicated.) | – | –
11 nM | 7 nM | 9 nM | 1980 nM | 8.7 nM | 24.8 nM | – | CC(C)(C)c1cc(NC(=O)Nc2ccc(Oc3ccnc(Nc4ccc5[nH]ncc5c4)n3)c3ccccc23)n(-c2cccc(OCCN3CCOCC3)c2)n1 [Example 54, 1-(4-((2-((1H-indazol-5-yl)amino)pyrimidin-4-yl)oxy)naphthalen-1-yl)-3-(3-(tert-butyl)-1-(3-(2-morpholinoethoxy)phenyl)-1H-pyrazol-5-yl)urea] | 10.3 nM | −ve (−ve and +ve indicate that the value is below and above respectively, the no significant effect threshold, defined as 30% inhibition at 1 μg/mL at the time point indicated.) | −ve (−ve and +ve indicate that the value is below and above respectively, the no significant effect threshold, defined as 30% inhibition at 1 μg/mL at the time point indicated.) | – | 0.4 nM
22 nM | < 1 nM | 7 nM | 1420 nM | 1.6 nM | 1.6 nM | – | CC(C)(C)c1cc(NC(=O)Nc2ccc(Oc3ccnc(Nc4ccc5[nH]ncc5c4)n3)c3ccccc23)n(-c2ccc(OCCN3CCOCC3)nc2)n1 [Example 15, 1-(4-((2-((1H-Indazol-5-yl)amino)pyrimidin-4-yl)oxy)naphthalen-1-yl)-3-(3-(tert-butyl)-1-(6-(2-morpholinoethoxy)pyridin-3-yl)-1H-pyrazol-5-yl)urea] | 2.1 nM | −ve (−ve and +ve indicate that the value is below and above respectively, the no significant effect threshold, defined as 30% inhibition at 1 μg/mL at the time point indicated.) | −ve (−ve and +ve indicate that the value is below and above respectively, the no significant effect threshold, defined as 30% inhibition at 1 μg/mL at the time point indicated.) | 56% | –
